# In patent US20220259215A1, “PYRROLOPYRAZOLE DERIVATIVES, PREPARATION METHOD THEREOF AND APPLICATION THEREOF IN MEDICINE” (SHANGHAI MEDICILON INC., priority 2019, published 2022):
# Molecular target: T1, H+/K+ATPase (Oryctolagus cuniculus, UniProt P27112)
# T1 construct: The stomach tissue of the rabbit was separated; from tissue; host or cells: rabbit stomach (fundus mucosa), membrane fraction obtained by differential and Ficoll centrifugation
# Assay: Determination of compounds' inhibition of H+/K+ATPase enzyme activity (malachite green, OD 620 nm)
# Type: biochemical
# Conditions: H+/K+ATPase extracted from rabbit stomach mucosa; 500 μM ATP, pH 6.5, 37° C.
# Source text: Test Example: Determination of Compounds' Inhibition of H+/K+ATPase Enzyme Activity
# The following experiment is used to determine the inhibitory effect of the compound of the present invention on the H+/K+ATPase enzyme activity.
# 1. Experimental materials
# Plate reader: SpectraMax M5(MD).
# Malachite Green (Sigma Aldrich, 213020-25G).
# Ammonium molybdate (Sigma Aldrich, 277908-20G).
# ATP (Sigma Aldrich, A1852-1VL).
# Enzyme working solution: titrating the enzyme, diluting the enzyme with buffer solution 1, and taking 5 μl of the diluted solution into 50 μl reaction system.
# ATP solution: 100 mM ATP was diluted to 5 mM with no K+ buffer, and 5 μl of the diluted solution was added to the 50 μl reaction system, that is, the final concentration of ATP was 500 μM.
# MLG color development liquid: 0.12% MLG, 7.5% ammonium molybdate, 11% Tween-20 was mixed as 100:25:2, and adding 15 μl of the mixture into each well during detection.
# Buffer 1: 50 mM Tris-HCl pH 6.5, 5 mM magnesium chloride (magnesium chloride), 10 μM valinomycin (valinomycin).
# Buffer 2: 50 mM Tris-HCl pH 6.5, 5 mM magnesium chloride (magnesium chloride), 10 μM valinomycin (valinomycin), 20 mM KCl.
# Homogenization buffer: 10 mmol/L Tris-HCl, pH 6.8, 0.25M sucrose (sucrose), 1 mmol/LEDTA.
# 7.5% Ficoll layering solution: homogenization buffer+7.5% (W/W) (Ficoll 400).
# 3.1.H^+/K^+ATPase enzyme extraction
# (1) The stomach tissue of the rabbit was separated, and the blood was washed with tap water, food residue.
# (2) The fundus portion was thoroughly washed with pre-cooled NaCl solution to remove surface mucus.
# (3) The stripped mucosa was filled into a sample bag or a 50 ml centrifuge tube, and quickly freezing in a liquid nitrogen tank.
# (4) The tissue was removed, minced with surgical scissors, and a pre-cooled homogenization buffer (4 ml/g tissue) was added and homogenized in a tissue homogenizer for 2 to 10 minutes.
# (5) After homogenization, if there were larger tissue particles, they could be removed by centrifugation (600 g, 10 min), and then the supernatant was transfered to a clean centrifuge tube. After centrifugation at 20000 g for 30 minutes, then the supernatant was transferred to a clean centrifuge tube at 100000 g for 90 minutes, and the precipitate was collected.
# (6) Resuspending the precipitate with homogenization buffer, blowing uniformly, adding 7.5% Ficoll layering solution at equal ratio, centrifuging at 100000 g for 90 minutes, and collecting the precipitate.
# (7) Resuspending the precipitate with homogenization buffer, blowing uniformly, and the protein concentration was measured by Bradford. Freezing in tubes at −80° C. for later use.
# 3.2. H+/K+ATPase activity experiment
# (1) Adding 35 μl of reaction buffer to each experimental well, and then adding 35 μl of buffer 1.
# (2) Adding 5 μl buffer 1 containing 10% DMSO to the whole enzyme and buffer well.
# (3) Adding 5 μl of 10× compound working solution to the compound well and mixing well.
# (4) Adding 5 μl of buffer 1 to the buffer well.
# (5) Adding 5 μl of 10× enzyme working solution to the remaining wells, mixing and incubating at 37° C. for 30 minutes.
# (6) Adding 5 μl of 10× ATP working solution to all experimental wells, mixing and incubating at 37° C. for 20 min.
# (7) Adding 15 μl MLG chromogenic solution to all experimental wells, and uniformly mixing and incubating at room temperature for 5-30 min.
# (8) The reading number of 620 nm was detected by an M5 instrument.
# The inhibition rate is calculated with the following formula:
# Inhibition rate (IC50)=[OD (sample well)-OD (full enzyme well containing potassium chloride)]/[(OD (full enzyme well containing potassium chloride)−(OD (full enzyme well without potassium chloride)]×100%
# T1 sequence (P27112 whole entry): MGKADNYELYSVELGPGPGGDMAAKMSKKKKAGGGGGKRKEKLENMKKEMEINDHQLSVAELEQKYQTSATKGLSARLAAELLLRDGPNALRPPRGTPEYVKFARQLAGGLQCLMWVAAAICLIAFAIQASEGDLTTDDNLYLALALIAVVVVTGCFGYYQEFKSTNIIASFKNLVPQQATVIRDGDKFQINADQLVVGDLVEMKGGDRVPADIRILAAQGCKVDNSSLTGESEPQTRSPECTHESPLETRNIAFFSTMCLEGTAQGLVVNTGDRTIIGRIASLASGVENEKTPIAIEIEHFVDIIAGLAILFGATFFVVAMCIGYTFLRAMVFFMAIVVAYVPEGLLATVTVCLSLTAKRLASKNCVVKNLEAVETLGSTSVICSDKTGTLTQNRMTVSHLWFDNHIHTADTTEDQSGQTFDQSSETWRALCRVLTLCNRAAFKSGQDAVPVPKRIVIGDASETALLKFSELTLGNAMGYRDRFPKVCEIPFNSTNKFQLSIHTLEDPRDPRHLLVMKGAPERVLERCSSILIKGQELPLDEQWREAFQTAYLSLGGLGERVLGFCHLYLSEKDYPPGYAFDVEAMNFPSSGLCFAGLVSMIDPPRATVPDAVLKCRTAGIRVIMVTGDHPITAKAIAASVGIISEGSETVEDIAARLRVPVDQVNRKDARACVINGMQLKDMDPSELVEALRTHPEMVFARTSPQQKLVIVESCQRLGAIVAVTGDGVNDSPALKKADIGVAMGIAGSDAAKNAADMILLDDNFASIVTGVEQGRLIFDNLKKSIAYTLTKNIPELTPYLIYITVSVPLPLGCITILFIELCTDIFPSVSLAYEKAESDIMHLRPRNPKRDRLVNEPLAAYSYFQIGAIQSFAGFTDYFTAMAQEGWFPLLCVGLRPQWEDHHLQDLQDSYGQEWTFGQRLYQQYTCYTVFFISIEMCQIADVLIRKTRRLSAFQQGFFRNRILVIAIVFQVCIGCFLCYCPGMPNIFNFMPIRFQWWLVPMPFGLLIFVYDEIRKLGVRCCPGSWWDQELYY
# T1 sequence (P18597 whole entry partner): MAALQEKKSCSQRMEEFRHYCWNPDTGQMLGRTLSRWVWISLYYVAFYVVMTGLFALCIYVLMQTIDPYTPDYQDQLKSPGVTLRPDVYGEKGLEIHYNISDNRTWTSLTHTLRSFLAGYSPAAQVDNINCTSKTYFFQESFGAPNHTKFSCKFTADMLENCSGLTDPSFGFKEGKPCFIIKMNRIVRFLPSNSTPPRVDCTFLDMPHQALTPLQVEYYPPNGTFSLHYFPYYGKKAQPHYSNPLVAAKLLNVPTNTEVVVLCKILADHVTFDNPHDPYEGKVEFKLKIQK
row,IC50,SMILES
1,2850 nM,"CN1Cc2nn(Cc3cccc(Nc4ccnc(N5CCOCC5)n4)c3)c(-c3ccccc3F)c2C1 [Example 6, N-(3-((3-(2-fluorophenyl)-5-methyl-5,6-dihydropyrrolo[3,4-c]pyrazol-2(4H)-yl)methyl)phenyl)-2-morpholinopyrimidin-4-amine]"
2,966 nM,"CN1Cc2nn(Cc3cccc(Nc4ccnc(Cl)n4)c3)c(-c3ccccc3F)c2C1 [Example 3, 2-chloro-N-(3-((3-(2-fluorophenyl)-5-methyl-5,6-dihydropyrrolo[3,4-c]pyrazol-2(4H)-yl)methyl)phenyl) pyrimidin-4-amine]"
3,415 nM,"COc1ccc(Nc2cccc(Cn3nc4c(c3-c3ccccc3F)CN(C)C4)c2)c(Cl)n1 [Example 1, 2-chloro-N-(3-((3-(2-fluorophenyl)-5-methyl-5,6-dihydropyrrolo[3,4-c]pyrazol-2(4H)-yl)methyl)phenyl)-6-methoxypyridin-3-amine]"
4,729 nM,"CN1Cc2nn(Cc3cccc(Nc4cc[nH]c(=O)n4)c3)c(-c3ccccc3F)c2C1 [Example 4, 4-((3-((3-(2-fluorophenyl)-5-methyl-5,6-dihydropyrrolo[3,4-c]pyrazol-2(4H)-yl)methyl)phenyl)amino)pyrimidin-2-(1H)-one]"
5,325 nM,"CN1Cc2nn(Cc3cccc(Nc4cncc(Cl)n4)c3)c(-c3ccccc3F)c2C1 [Example 7, 6-chloro-N-(3-((3-(2-fluorophenyl)-5-methyl-5,6-dihydropyrrolo[3,4-c]pyrazol-2(4H)-yl)methyl)phenyl)pyrazin-2-amine]"
6,669 nM,"Cc1ccc(Nc2cccc(Cn3nc4c(c3-c3ccccc3F)CN(C)C4)c2)c(Cl)n1 [Example 2, 2-chloro-N-(3-((3-(2-fluorophenyl)-5-methyl-5,6-dihydropyrrolo[3,4-c]pyrazol-2(4H)-yl)methyl)phenyl)-6-methylpyridin-3-amine]"
7,279 nM,"CNc1nccc(Nc2cccc(Cn3nc4c(c3-c3ccccc3F)CN(C)C4)c2)n1 [Example 5, N4-(3-((3-(2-fluorophenyl)-5-methyl-5,6-dihydropyrrolo[3,4-c]pyrazol-2(4H)-yl)methyl)phenyl)-N2-methylpyrimidine-2,4-diamine]"
